# According to patent publication US9271978B2 (Zenith Epigenetics Corp., priority 2012, dated 2016):
# Key:
# [1] = biological target: T1, Brd4 bromodomain 1 (BRD4(1)) (Homo sapiens, UniProt O60885); experiment: Inhibition of tetra-acetylated histone H4 binding to Brd4 bromodomain 1 (TR-FRET); design: key: Active: Compounds with an IC50 value less than 30 μM were deemed to be active.; Not Active: Compounds with an IC50 value less than 30 μM were deemed to be active; settings: tetra-acetylated histone H4 peptide, active = IC50 <30 μM
# T1 construct: Illustrative results with the first bromodomain of Brd4; made in house; host or cells: E. coli BL21 (DE3)
# Method in brief: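 IC50 values come from dose-response curves of the 665 nm to 620 nm TR-FRET signal decrease, measured after 2 h at room temperature. Reactions contained 200 nM E. coli-expressed His-tagged bromodomain, 25-50 nM biotinylated tetra-acetylated H4 peptide, Eu-streptavidin plus XL665 anti-His antibody, with 30 mM HEPES pH 7.4, 320 mM KF and 0.2% DMSO.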
# [2] = tested on: c-myc; experiment: Inhibition of c-myc expression in MV4-11 cells (mRNA, real-time PCR); format: cell-based; design: key: Active: Compounds with an IC50 value less than 30 μM were deemed to be active.; Not Active: Compounds with an IC50 value less than 30 μM were deemed to be active; settings: Human AML MV4-11 cells, 3 h incubation
# Method in brief: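 Duplex RT-qPCR of c-myc against cyclophilin cDNA gave IC50 from a dose–response curve. Input was isolated mRNA from 2.5×10^4 MV4-11 cells after 3 h exposure at 37 °C to compound or 0.1% DMSO vehicle.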
# [3] = tested on: human AML MV-4-11 (CRL-9591) cells; experiment: Inhibition of cell proliferation in MV4-11 cells; format: cell-based; design: key: Active: Compounds with an IC50 value less than 30 μM were deemed to be active.; Not Active: Compounds with an IC50 value less than 30 μM were deemed to be active; settings: human AML MV-4-11 cells, 72 h; active = IC50 <30 μM
# Method in brief: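 IC50 values come from blank-corrected proliferation relative to DMSO controls, read as 490 nm absorbance 3–4 h after CellTiter Aqueous One addition. Before that, cells seeded at 5×10^4/well were exposed for 72 h (37° C, 5% CO2) to triplicate two-fold compound dilutions spanning 30–0.2 μM.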
# [4] = tested on: ApoA-I mRNA; experiment: Up-regulation of hApoA-1 mRNA transcription in Huh7 cells; format: cell-based, human; design: key: Active: Compounds with an EC170 value less than 30 μM were deemed to be active; settings: 48 h treatment, ApoA-I mRNA by real-time PCR, Active = EC170 less than 30 μM
# Protocol: In this example, ApoA-I mRNA in tissue culture cells was quantitated to measure the transcriptional up-regulation of ApoA-I when treated with a compound of the present disclosure.
# Huh7 cells (2.5×10^5 per well) were plated in a 96-well plate using 100 μL DMEM per well, (Gibco DMEM supplemented with penicillin/streptomycin and 10% FBS), 24 h before the addition of the compound of interest. After 48 h treatment, the spent media was removed from the Huh-7 cells and placed on ice (for immediate use) or at −80° C. (for future use) with the “LDH cytotoxicity assay Kit II” from Abcam. The cells remaining in the plate were rinsed with 100 μL PBS.
# Then 85 μL of cell lysis solution was added to each well and incubated for 5-10 min at room temperature, to allow for complete cell lysis and detachment. mRNA was then prepared using the “mRNA Catcher PLUS plate” from Life Technologies, according to the protocol supplied. After the last wash, as much wash buffer as possible was aspirated without allowing the wells to dry. Elution Buffer (E3, 80 μL) was then added to each well. mRNA was then eluted by incubating the mRNA Catcher PLUS plate with Elution Buffer for 5 min at 68° C., and then 1 min at 4° C. Catcher plates with mRNA eluted were kept on ice for use or stored at −80° C.
# The eluted mRNA isolated was then used in a one-step real-time PCR reaction, using components of the Ultra Sense Kit together with Life Technologies primer-probe mixes. Real-time PCR data was analyzed, using the Ct values, to determine the fold induction of each unknown sample, relative to the control (that is, relative to the control for each independent DMSO concentration).
# Compounds with an EC170 value less than 30 μM were deemed to be active.
# [5] = tested on: hIL-6 mRNA; experiment: Inhibition of hIL-6 mRNA transcription in U937 cells; format: cell-based, human; design: key: Active: Compounds with an IC50 value less than 30 μM were deemed to be active.; Not Active: Compounds with an IC50 value less than 30 μM were deemed to be active; settings: LPS stimulation, active = IC50 <30 μM
# Method in brief: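 Readout is one-step real-time PCR of hIL-6 mRNA, normalized to an internal control and given as fold induction versus control. Cells: PMA (60 ng/mL, 3 days)-differentiated U937 macrophages, compound added 1 h before 1 ug/mL LPS, harvested after 3 h at 37° C.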
SMILES,FRET activity (IC50 <30 μM) BRD4(1) [1],c-myc activity (IC50 <30 μM) [2],Cell Proliferation activity (IC50 <30 μM) [3],IL-6 activity (IC50 <30 μM) [5],ApoA-1 activity (EC170 <30 μM) [4]
"Cc1noc(C)c1-c1cc(-c2cccc(C(N)=O)c2)c(=O)n(Cc2ccccc2)c1 [Example 185, 3-(1-benzyl-5-(3,5-dimethylisoxazol-4-yl)-2-oxo-1,2-dihydropyridin-3-yl)benzamide]",Active,Active,Active,Not Active,Active
"CCNc1cc(-c2c(C)noc2C)cn(Cc2ccccc2)c1=O [Example 186, 1-benzyl-5-(3,5-dimethylisoxazol-4-yl)-3-(ethylamino)pyridin-2(1H)-one]",Active,Active,Active,Active,Active
"Cc1onc(CO)c1-c1cc(N)c(=O)n(Cc2ccccc2)c1 [Example 189, 3-Amino-1-benzyl-5-(3-(hydroxymethyl)-5-methylisoxazol-4-yl)pyridin-2(1H)-one]",Active,Active,Active,Active,Active
"Cc1noc(C)c1-c1cc(N2CCOCC2)c(=O)n(Cc2ccccc2)c1 [Example 190, 1-benzyl-5-(3,5-dimethylisoxazol-4-yl)-3-morpholinopyridin-2(1H)-one]",Active,Active,Active,Not Active,Active
"Cc1noc(C)c1-c1cc(OCc2ccccc2)c(=O)n(Cc2ccccc2)c1 [Example 191, 1-benzyl-3-(benzyloxy)-5-(3,5-dimethylisoxazol-4-yl)pyridin-2(1H)-one]",Active,Active,Active,Not Active,Active
"Cc1noc(C)c1-c1cc(NC(C)C)c(=O)n(Cc2ccccc2)c1 [Example 192, 1-benzyl-5-(3,5-dimethylisoxazol-4-yl)-3-(isopropylamino)pyridin-2(1H)-one]",Active,Active,Active,Active,Active
"Cc1noc(C)c1-c1cc(Nc2ccccn2)c(=O)n(Cc2ccccc2)c1 [Example 193, 1-benzyl-5-(3,5-dimethylisoxazol-4-yl)-3-(pyridin-2-ylamino)pyridin-2(1H)-one]",Not Active,Not Active,Active,Active,Active
"Cc1noc(C)c1-c1cc(Nc2cccnc2)c(=O)n(Cc2ccccc2)c1 [Example 194, 1-benzyl-5-(3,5-dimethylisoxazol-4-yl)-3-(pyridin-3-ylamino)pyridin-2(1H)-one]",Active,Active,Active,Active,Active
"Cc1noc(C)c1-c1cc(C#N)c(=O)n(Cc2ccccc2)c1 [Example 198, 1-Benzyl-5-(3,5-dimethylisoxazol-4-yl)-2-oxo-1,2-dihydropyridine-3-carbonitrile]",Active,Not Active,Not Active,Not Active,Active

# Further lines, with some results ahead:
FRET activity (IC50 <30 μM) BRD4(1) [1],c-myc activity (IC50 <30 μM) [2],Cell Proliferation activity (IC50 <30 μM) [3],IL-6 activity (IC50 <30 μM) [5],SMILES,ApoA-1 activity (EC170 <30 μM) [4]
Active,Active,Active,Active,"Cc1noc(C)c1-c1cc(N)c(=O)n(Cc2ccc(Cl)c(F)c2)c1 [Example 203, 3-amino-1-(4-chloro-3-fluorobenzyl)-5-(3,5-dimethylisoxazol-4-yl)pyridin-2(1H)-one]",Active
Active,Active,Active,Active,"Cc1onc(CO)c1-c1cc(N)c(=O)n(Cc2ccc(Cl)cc2)c1 [Example 205, 3-Amino-1-(4-chlorobenzyl)-5-(3-(hydroxymethyl)-5-methylisoxazol-4-yl)pyridin-2(1H)-one]",Active
Active,Active,Active,Active,"Cc1noc(C)c1-c1cc(N)c(=O)n(Cc2ccc(Cl)cc2F)c1 [Example 206, 3-amino-1-(4-chloro-2-fluorobenzyl)-5-(3,5-dimethylisoxazol-4-yl)pyridin-2(1H)-one]",Active
Active,Active,Active,Active,"Cc1noc(C)c1-c1cc(N)c(=O)n(Cc2ccc(F)cc2Cl)c1 [Example 207, 3-amino-1-(2-chloro-4-fluorobenzyl)-5-(3,5-dimethylisoxazol-4-yl)pyridin-2(1H)-one]",Active
Active,Active,Active,Active,"Cc1noc(C)c1-c1cc(NC2CCCC2)c(=O)n(Cc2ccccc2)c1 [Example 208, 1-benzyl-3-(cyclopentylamino)-5-(3,5-dimethylisoxazol-4-yl)pyridin-2(1H)-one]",Active
